Test [1] addresses mutEGFR (D770_N771insSVD) (Homo sapiens (Human), UniProt P00533, INS770SVD). The experiment in a line: biochemical. Particulars: mutEGFR (D770_N771 insSVD) at 2 mM ATP IC50, 2 mM ATP.
Test [2] deals with human Bub1 (Homo sapiens (Human), UniProt O43683). In words: Bub1 high ATP kinase assay (TR-FRET). Type of test: biochemical. The text has this: Bub1-inhibitory activity of compounds of the present invention at a high ATP concentration was quantified employing the Bub1 TR-FRET high ATP kinase assay as described in the following paragraphs.
N-terminally His6-tagged recombinant catalytic domain of human Bub1 (amino acids 704-1085), expressed in insect cells (Hi5) and purified by Ni-NTA affinity chromatography and subsequent size exclusion chromatography, was used as enzyme.

Test [3] concerns Ba/F3-EGFR-insSVD. The experiment in a line: Ba/F3 cell survival assay, EGFR-insSVD. Format: cell-based. In a few lines: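 Ba/F3 cells stably expressing WT EGFR or EGFR-insSVD via retrovirus, grown without IL-3 on 10 ng/mL EGF, plated at 4000 cells/well. Compound exposure 48 h at 37 °C; viability read by CellTiter-Glo luminescence.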
In test [4] the test system is Ba/F3-EGFR-WT. The experiment in a line: Ba/F3 cell survival assay, WT EGFR. Format: cell-based.
[5] abbreviates: Bub1 high ATP (2 mM) IC50, 2 mM ATP.
[6] abbreviates: read-out: BA/F3 (insSVD) IC50, cell viability, Cell Titer-Glo, 48 h, with 10 ng/mL EGF, without IL-3.
Where [7] appears, read: read-out: BA/F3 (wild type) IC50, cell viability, Cell Titer-Glo, 48 h, with 10 ng/mL EGF, without IL-3.
Setting [8] is: read-out: Bub1 high ATP (2 mM) IC50, 2 mM ATP.
[9] abbreviates: Mus musculus, BaF3, 48 h, read-out: BA/F3 (insSVD) IC50, cell viability, Cell Titer-Glo, 48 h, with 10 ng/mL EGF, without IL-3.
Where [10] appears, read: Mus musculus, BaF3, 48 h, read-out: BA/F3 (wild type) IC50, cell viability, Cell Titer-Glo, 48 h, with 10 ng/mL EGF, without IL-3.

“And” between values parts separate entries of the source, which are not always exact repeats. Equal entries are not always repeated. Where two headings read alike, the source gives them in different places.

Sequence of mutEGFR (D770_N771insSVD) (P00533 other isoform, or with tags, fused parts or gaps ins SVD behind 770): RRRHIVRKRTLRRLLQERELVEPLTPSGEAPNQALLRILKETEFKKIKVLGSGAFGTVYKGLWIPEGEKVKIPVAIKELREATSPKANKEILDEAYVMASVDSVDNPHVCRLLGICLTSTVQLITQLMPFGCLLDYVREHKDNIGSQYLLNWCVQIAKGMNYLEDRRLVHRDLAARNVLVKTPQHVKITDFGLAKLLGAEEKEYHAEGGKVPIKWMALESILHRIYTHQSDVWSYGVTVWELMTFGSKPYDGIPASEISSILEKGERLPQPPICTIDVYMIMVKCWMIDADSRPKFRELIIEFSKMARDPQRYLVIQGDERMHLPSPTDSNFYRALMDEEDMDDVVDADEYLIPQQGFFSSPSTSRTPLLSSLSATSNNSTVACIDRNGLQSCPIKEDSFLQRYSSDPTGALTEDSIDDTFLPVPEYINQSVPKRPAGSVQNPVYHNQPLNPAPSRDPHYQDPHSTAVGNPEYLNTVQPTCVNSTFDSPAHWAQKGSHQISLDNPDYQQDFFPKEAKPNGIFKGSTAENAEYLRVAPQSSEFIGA
Sequence of human Bub1 (O43683 704-1085): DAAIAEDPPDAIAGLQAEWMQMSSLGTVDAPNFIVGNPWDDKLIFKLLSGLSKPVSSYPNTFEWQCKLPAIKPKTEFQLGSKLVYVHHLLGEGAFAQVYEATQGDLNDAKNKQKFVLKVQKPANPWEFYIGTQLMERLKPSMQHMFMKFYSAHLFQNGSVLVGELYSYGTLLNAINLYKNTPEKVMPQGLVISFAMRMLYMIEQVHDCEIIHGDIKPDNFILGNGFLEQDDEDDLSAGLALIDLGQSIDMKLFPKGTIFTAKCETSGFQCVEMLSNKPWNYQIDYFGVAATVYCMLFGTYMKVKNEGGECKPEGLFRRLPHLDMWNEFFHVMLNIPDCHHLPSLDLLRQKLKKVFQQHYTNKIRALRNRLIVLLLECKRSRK

In the case of `COc1c(Cl)cc(F)cc1Nc1c(-c2ccncc2OCC2(C)CCO2)[nH]c2c1C(=O)NCC2` (single isomer, unassigned) [Example 69, 3-(3-chloro-5-fluoro-2-methoxyanilino)-2-(3-{[2-methyloxetan-2-yl]methoxy}pyridin-4-yl)-1,5,6,7-tetrahydro-4H-pyrrolo[3,2-c]pyridin-4-one], the IC50 in test [1] turned out to be 0.317 nM; in test [2] (setting [5]), 13.5 µM; in test [3] (setting [6]), 241 nM; in test [4] (setting [7]), 1430 nM.

Turning to `COc1c(Cl)cc(F)cc1Nc1c(-c2ccncc2OCC2(C)CCO2)[nH]c2c1C(=O)NCC2` (single isomer, unassigned) [Example 70, 3-(3-chloro-5-fluoro-2-methoxyanilino)-2-(3-{[2-methyloxetan-2-yl]methoxy}pyridin-4-yl)-1,5,6,7-tetrahydro-4H-pyrrolo[3,2-c]pyridin-4-one], the IC50 in test [1] is 0.161 nM; in test [2] (setting [5]), 18.8 µM and > 20 µM; in test [3] (setting [6]), 32.7 nM; in test [4] (setting [7]), 537 nM.

Consider `Cc1c(Cl)cccc1Nc1c(-c2ccncc2OC[C@]2(C)CCO2)[nH]c2c1C(=O)NCC2` (single isomer, unassigned) [Example 82, (+)-3-(3-chloro-2-methylanilino)-2-(3-{[2-methyloxetan-2-yl]methoxy}pyridin-4-yl)-1,5,6,7-tetrahydro-4H-pyrrolo[3,2-c]pyridin-4-one], for which the IC50 in test [1] is 0.134 nM; in test [2] (setting [8]), 5.98 µM; in test [3] (setting [9]), 34.8 nM; in test [4] (setting [10]), 673 nM.

For `Cc1cccc(Nc2c(-c3ccncc3OCC3(C)CCO3)[nH]c3c2C(=O)NCC3)c1Cl` (single isomer, unassigned; (+)) [Example 56, (+)-3-(2-chloro-3-methylanilino)-2-{3-[(2-methyloxetan-2-yl)methoxy]pyridin-4-yl}-1,5,6,7-tetrahydro-4H-pyrrolo[3,2-c]pyridin-4-one], the IC50 was 0.15 nM in test [1], 16.1 µM in test [2] (setting [8]), 35.1 nM in test [3] (setting [6]) and 489 nM in test [4] (setting [7]).

In the case of `Cc1c(F)cccc1Nc1c(-c2ccncc2OCC2(C)CCO2)[nH]c2c1C(=O)NCC2` (single isomer, unassigned; (+)) [Example 85, (+)-3-(3-fluoro-2-methylanilino)-2-(3-{[2-methyloxetan-2-yl]methoxy}pyridin-4-yl)-1,5,6,7-tetrahydro-4H-pyrrolo[3,2-c]pyridin-4-one], the IC50 was found to be 0.107 nM in test [1], 15.8 µM in test [2] (setting [8]), 43.7 nM in test [3] (setting [6]) and 1260 nM in test [4] (setting [7]).

For `Cc1cccc(Nc2c(-c3ccncc3OCC3(C)CCO3)[nH]c3c2C(=O)NCC3)c1Cl` (single isomer, unassigned; (-)) [Example 57, (−)-3-(2-chloro-3-methylanilino)-2-{3-[(2-methyloxetan-2-yl)methoxy]pyridin-4-yl}-1,5,6,7-tetrahydro-4H-pyrrolo[3,2-c]pyridin-4-one], the IC50 in test [1] is 0.264 nM; in test [2] (setting [8]), 13 µM; in test [3] (setting [6]), 402 nM; in test [4] (setting [7]), 3250 nM.

Regarding `Cc1c(Cl)cccc1Nc1c(-c2ccncc2OCC2(C)CCO2)[nH]c2c1C(=O)NCC2` (single isomer, unassigned; (-)) [Example 81, (−)-3-(3-chloro-2-methylanilino)-2-(3-{[2-methyloxetan-2-yl]methoxy}pyridin-4-yl)-1,5,6,7-tetrahydro-4H-pyrrolo[3,2-c]pyridin-4-one], the IC50 in test [1] was 0.129 nM; in test [2] (setting [8]) it was 5.05 µM; in test [3] (setting [9]), 96.4 nM; in test [4] (setting [10]), 664 nM.

Consider `Cc1c(F)cccc1Nc1c(-c2ccncc2OCC2(C)CCO2)[nH]c2c1C(=O)NCC2` (single isomer, unassigned; (-)) [Example 84, (−)-3-(3-fluoro-2-methylanilino)-2-(3-{[2-methyloxetan-2-yl]methoxy}pyridin-4-yl)-1,5,6,7-tetrahydro-4H-pyrrolo[3,2-c]pyridin-4-one], for which the IC50 was determined as 0.156 nM in test [1], 14.9 µM in test [2] (setting [8]), 306 nM in test [3] (setting [6]) and 1290 nM in test [4] (setting [10]).

As to `O=C1NCCc2[nH]c(-c3ccncc3OCC3COC3)c(Nc3cccc(F)c3Cl)c21` [Example 16, 3-(2-chloro-3-fluoroanilino)-2-{3-[(oxetan-3-yl)methoxy]pyridin-4-yl}-1,5,6,7-tetrahydro-4H-pyrrolo[3,2-c]pyridin-4-one], the IC50 in test [1] is 0.0988 nM; in test [2] (setting [8]), 13.9 µM; in test [3] (setting [9]), 193 nM; in test [4] (setting [10]) it was 1140 nM.

As for `CCC1(COc2cnccc2-c2[nH]c3c(c2Nc2cccc(Cl)c2C)C(=O)NCC3)COC1` [Example 23, 3-(3-chloro-2-methylanilino)-2-{3-[(3-ethyloxetan-3-yl)methoxy]pyridin-4-yl}-1,5,6,7-tetrahydro-4H-pyrrolo[3,2-c]pyridin-4-one], the IC50 in test [1] is 0.96 nM; in test [2] (setting [8]), greater than 5.71 µM; in test [3] (setting [9]), 190 nM; in test [4] (setting [10]), 3380 nM.

Take `CCc1c(Cl)cccc1Nc1c(-c2ccncc2OCC2(C)CCO2)[nH]c2c1C(=O)NCC2` (stereo not shown) [Example 78, 3-(3-chloro-2-ethylanilino)-2-(3-{[2-methyloxetan-2-yl]methoxy}pyridin-4-yl)-1,5,6,7-tetrahydro-4H-pyrrolo[3,2-c]pyridin-4-one]: the IC50 is 0.267 nM in test [1], 2.8 µM in test [2] (setting [8]), 30.4 nM in test [3] (setting [9]) and 698 nM in test [4] (setting [10]).

Take `CCC1(COc2cnccc2-c2[nH]c3c(c2Nc2cccc(C)c2Cl)C(=O)NCC3)COC1` [Example 86, 3-(2-chloro-3-methylanilino)-2-{3-[(3-ethyloxetan-3-yl)methoxy]pyridin-4-yl}-1,5,6,7-tetrahydro-4H-pyrrolo[3,2-c]pyridin-4-one]: the IC50 in test [1] is 0.187 nM; in test [2] (setting [8]), greater than 5.7 µM; in test [3] (setting [9]) it was 255 nM; in test [4] (setting [10]) it was 899 nM.

For the compound `CCC1(COc2cnccc2-c2[nH]c3c(c2Nc2cccc(F)c2OC)C(=O)NCC3)COC1` [Example 88, 2-{3-[(3-ethyloxetan-3-yl)methoxy]pyridin-4-yl}-3-(3-fluoro-2-methoxyanilino)-1,5,6,7-tetrahydro-4H-pyrrolo[3,2-c]pyridin-4-one], the IC50 in test [1] amounted to 0.0873 nM; in test [2] (setting [8]), 7.49 µM; in test [3] (setting [9]), 66.8 nM; in test [4] (setting [10]) it was 1130 nM.
